What was measured:
[1] = tested on: Kuramochi cells labeled with mApple-H2B; assay: IncuCyte cell proliferation assay; type: cell-based; conditions: Kuramochi RB-WT, cell count 0 to 72 hours; method calls it GI50
Method: IncuCyte® assay was used to measure the effect of disclosed compounds on cell proliferation. Fluorescent microscopy images of cells were taken immediately after compound treatment and 72 hours later. Image analysis software was used to obtain cell counts as a function of compound concentration. Kuramochi cells labeled with mApple-H2B were seeded on 384-well assay-ready plates. Plates were placed in an IncuCyte® (Sartorius) and scanned at 0 and 72 hours. IncuCyte® software was used to count the number of fluorescent nuclei in each well. The fold change in cell count from 0 to 72 hours in wells treated with increasing compounds concentrations (10 pts, 1/2 log dilution, 20 μM top concentration) was normalized to DMSO control wells. The normalized cell counts were fit with dose response curves and a GI50 was calculated.

[2] = tested on: Kuramochi cells; assay: BrdU cell proliferation assay; type: cell-based; conditions: 96 h, developed on day 4, read-out: BrdU - KURAMOCHI.1: IC50
Method: A BrdU assay was used as a measure of proliferation based on the DNA replication process of proliferating cells. BrdU, a pyrimidine analog, is added to the cell culture and incorporated into the DNA of proliferating cells. The presence of the BrdU analog was then measured through a colorimetric ELISA. After fixation and permeabilization of cells, peroxidase-conjugated antibody recognizing BrdU is added and allowed to incubate, followed by thorough washing to remove unbound antibody. In order to quantify the amount of bound antibody, peroxidase substrate is added and produces a color that can be measured at 450 nm.
On day −1, Kuramochi cells (Sekisui XenoTech JCRB0098) were seeded at 2,000 cells/well in columns 2-12 of a 96 well plate (Corning, CLS3596) in 150 uL media and allowed to adhere overnight at 37 degree with 5% CO2. In order to assess specificity of the compounds, Kuramochi RB^KO cells were also plated and treated, as RB^KO cells were not expected to show a proliferative response to CCNE/CDK specific inhibitors.
On day 0, the source plate was prepared by adding 10 mM compounds and performing 3-fold serial dilutions for a 4-point dose response of each compound. Using a multichannel pipette, 2 μL of the contents of the source plate were stamped into an intermediate plate with 500 μL of RPMI 1640 Media, GlutaMAX Supplement (Life Technologies. 61870127) in each well of a Nunc 96 DeepWell™ plate, non-treated 96 DeepWell plate, 2 mL/well, sterile, natural. 60/cs (Sigma Z717274) and mixed thoroughly. 50 uL from row A of this intermediate plate were added to rows A-H of one plate of previously seeded Kuramochi cells, and each subsequent row of the intermediate plate was added to a full plate of cells.
On day 4, the plates were developed using the BrdU ELISA Cell Proliferation Assay according to manufacturer's instructions (Roche, 11647229001). Briefly, BrdU was diluted 1:100 in Gibco®. Opti-MEM® and 20 μL/well was added, shaken for 10 minutes at 350 rpm, and then returned to the incubator for 1 hour. Following incubation, the medium was discarded, and the cells were fixed by adding 200 μL of Fix/Denature solution. The anti-BrdU peroxidase antibody was diluted 1:1000 in OptiMEM, added at 100 μL/well, and incubated while shaking (350 rpm) for one hour. Three washes with PBS were performed to remove any unbound antibody, followed by the addition of 100 μL of substrate solution to each well. […] was then added to halt the reaction, and plates were read out using an Envision spectrophotometer (Perkin Elmer) set to read 450 nm absorbance. Background absorbance values from empty wells were subtracted from all samples and then normalized to DMSO treated wells.

[3] = biological target: CDK2/Cyclin E1 (Homo sapiens (Human), UniProt P24941); assay: Caliper LabChip EZ Reader mobility shift assay; type: biochemical; conditions: 2.5 nM CDK2/Cyclin E1 (14-475), 100 μM ATP, 1.5 μM fluorescent peptide; read-out: Caliper Assay (CDK2/CCNE1): IC50
Method: Inhibition of CDK2/Cyclin E1 activity in the presence of compounds of the present disclosure was evaluated using a Caliper LabChip® EZ Reader mobility shift assay. In the assay, activated CDK2/Cyclin E1 catalyzes the phosphorylation of a fluorescently tagged peptide 5-FAM-QSPKKG-CONH2 (PerkinElmer, FL Peptide 18) which induces a difference in capillary electrophoresis mobility. The peptide substrate and product were measured, and the conversion ratio was used to determine the inhibition (as % activity and IC50 values) of CDK2/Cyclin E1. Reactions contained 50 mM HEPES pH 7.5, 10 mM MgCl2, 1 mM EDTA, 2 mM DTT, 0.01% Brij35, 0.5 mg/mL BSA, 0.1% DMSO, 2.5 nM CDK2/Cyclin E1 (14-475), 100 μM ATP, and 1.5 μM fluorescent peptide substrate.
Dose titrations of inhibitors in 100% DMSO were combined with 3.25 nM CDK2/Cyclin E1 (14-475) and 130 μM of ATP in reaction buffer. The mixtures were incubated for 30 minutes before the addition of fluorescent peptide substrate to initiate the kinase reaction. The final conditions were 2.5 nM CDK2/Cyclin E1 (14-475), 100 μM ATP, and 1.5 μM fluorescent peptide. The reactions were stopped after 100 minutes with the addition of EDTA (6 mM final EDTA concentration). The stopped reactions were analyzed on a Caliper LabChip® EZ Reader II. The conversion ratios were normalized to yield % activity, plotted against compound concentration, and fit to a four-parameter equation to determine the IC50 for each compound.

With `CNC(=O)[C@@H](NC(=O)[C@@H]1CN(C(=O)c2cnn(Cc3ccccc3)c2)CC12CN(c1ncco1)C2)[C@@H](C)OCC1CCCCC1` [Compound I-2, (S)-6-(1-benzyl-1H-pyrazole-4-carbonyl)-N-((2S,3R)-3-(cyclohexylmethoxy)-1-(methylamino)-1-oxobutan-2-yl)-2-(oxazol-2-yl)-2,6-diazaspiro[3.4]octane-8-carboxamide] the IC50 [1] was greater than 20 µM, the IC50 [2] was greater than 10 µM and the IC50 [3] was 100 to 1000 nM.
Compound `C[C@@H](OCC1CCCCC1)[C@H](NC(=O)[C@@H]1CN(c2cccc3cn[nH]c23)CC12CN(C(=O)[C@H]1CC1(C)C)C2)C(=O)N1CCCCC1` [Compound I-11, (S)-N-((2S,3R)-3-(cyclohexylmethoxy)-1-oxo-1-(piperidin-1-yl)butan-2-yl)-2-((S)-2,2-dimethylcyclopropanecarbonyl)-6-(1H-indazol-7-yl)-2,6-diazaspiro[3.4]octane-8-carboxamide] has an IC50 [1] of 0.5 to 5 µM and an IC50 [2] of 0.5 to 5 µM.
`C[C@@H](OCC1CCCCC1)[C@H](NC(=O)[C@@H]1CN(c2cccc3[nH]ccc23)CC12CN(C(=O)[C@H]1CC1(C)C)C2)C(=O)N1CCCCC1` [Compound I-14, (S)-N-((2S,3R)-3-(cyclohexylmethoxy)-1-oxo-1-(piperidin-1-yl)butan-2-yl)-2-((S)-2,2-dimethylcyclopropanecarbonyl)-6-(1H-indol-4-yl)-2,6-diazaspiro[3.4]octane-8-carboxamide] showed an IC50 [1] of 0.5 to 5 µM, an IC50 [2] greater than 10 µM and an IC50 [3] greater than 10000 nM.
`C[C@@H](OCC1CCCCC1)[C@H](NC(=O)[C@@H]1CN(c2nccc3[nH]ncc23)CC12CN(C(=O)[C@H]1CC1(C)C)C2)C(=O)N1CCCCC1` [Compound I-9, (S)-N-((2S,3R)-3-(cyclohexylmethoxy)-1-oxo-1-(piperidin-1-yl)butan-2-yl)-2-((S)-2,2-dimethylcyclopropanecarbonyl)-6-(1H-pyrazolo[4,3-c]pyridin-4-yl)-2,6-diazaspiro[3.4]octane-8-carboxamide] was tested, and the IC50 [1] was greater than 20 µM, the IC50 [2] was greater than 10 µM and the IC50 [3] was greater than 10000 nM.
Work on `C[C@@H](OCC12CCC(CC1)OC2)[C@H](NC(=O)[C@@H]1CN(c2cc(F)cc3ncsc23)CC12CN(C(=O)[C@H]1CC1(C)C)C2)C(=O)N1CCC(c2ccncc2)CC1` [Compound I-33, N-((2S,3R)-3-(2-oxabicyclo[2.2.2]octan-4-ylmethoxy)-1-oxo-1-(4-(pyridin-4-yl)piperidin-1-yl)butan-2-yl)-2-((S)-2,2-dimethylcyclopropanecarbonyl)-6-(5-fluorobenzo[d]thiazol-7-yl)-2,6-diazaspiro[3.4]octane-8-carboxamide] yielded an IC50 [1] of 0.5 to 5 µM and an IC50 [3] of no more than 10 nM.
Work on `CC(C)(O)C(NC(=O)[C@@H]1CN(C(=O)c2cncs2)CC12CN(c1ncco1)C2)c1cccc(C2CCOCC2)n1` (stereo partly drawn) [Compound I-5, (8S)—N-(2-hydroxy-2-methyl-1-(6-(tetrahydro-2H-pyran-4-yl) 239yridine-2-yl)propyl)-2-(oxazol-2-yl)-6-(thiazole-5-carbonyl)-2,6-diazaspiro[3.4]octane-8-carboxamide] yielded an IC50 [1] greater than 20 µM and an IC50 [3] greater than 10000 nM.
In the case of `C[C@@H](OCC1(CO)CC=CCC1)[C@H](NC(=O)[C@@H]1CN(c2ncnc3ncsc23)CC12CN(C(=O)[C@H]1CC1(C)C)C2)C(=O)N1CC2(CCOCC2)C1` (stereo partly drawn) [Compound I-37, (8S)-2-((S)-2,2-dimethylcyclopropane-1-carbonyl)-N-((2S,3R)-3-((1-(hydroxymethyl)cyclohex-3-en-1-yl)methoxy)-1-oxo-1-(7-oxa-2-azaspiro[3.5]nonan-2-yl)butan-2-yl)-6-(thiazolo[4,5-d]pyrimidin-7-yl)-2,6-diazaspiro[3.4]octane-8-carboxamide], the IC50 [1] is reported as greater than 20 µM and the IC50 [3] is reported as 100 to 1000 nM.
`COC[C@H]1CCCN(C(=O)[C@@H](NC(=O)[C@@H]2CN(c3cc(O)cc4ncsc34)CC23CN(C(=O)[C@H]2CC2(C)C)C3)[C@@H](C)OCC23CCC(CC2)OC3)C1` [Compound I-20, (S)-N-((2S,3R)-3-(2-oxabicyclo[2.2.2]octan-4-ylmethoxy)-1-((S)-3-(methoxymethyl)piperidin-1-yl)-1-oxobutan-2-yl)-2-((S)-2,2-dimethylcyclopropanecarbonyl)-6-(5-hydroxybenzo[d]thiazol-7-yl)-2,6-diazaspiro[3.4]octane-8-carboxamide] showed an IC50 [1] of 5 to 20 µM and an IC50 [3] of 100 to 1000 nM.
`C[C@@H](OCC12CCC(CC1)OC2)[C@H](NC(=O)[C@@H]1CN(c2nccc3ncsc23)CC12CN(C(=O)[C@H]1CC1(C)C)C2)C(=O)N1CCC2(CC1)COC2` [Compound I-19, (S)-N-((2S,3R)-3-(2-oxabicyclo[2.2.2]octan-4-ylmethoxy)-1-oxo-1-(2-oxa-7-azaspiro[3.5]nonan-7-yl)butan-2-yl)-2-((S)-2,2-dimethylcyclopropanecarbonyl)-6-(thiazolo[5,4-c]pyridin-4-yl)-2,6-diazaspiro[3.4]octane-8-carboxamide] gave an IC50 [1] greater than 20 µM and an IC50 [3] of 1000 to 10000 nM.
`C[C@@H](OCC1CCC(F)(F)CC1)[C@H](NC(=O)[C@@H]1CN(C(=O)c2cncs2)CC12CN(c1cc[nH]n1)C2)C(C)(C)O` [Compound I-6, (S)-N-((3S,4R)-4-((4,4-difluorocyclohexyl)methoxy)-2-hydroxy-2-methylpentan-3-yl)-2-(1H-pyrazol-3-yl)-6-(thiazole-5-carbonyl)-2,6-diazaspiro[3.4]octane-8-carboxamide] showed an IC50 [1] greater than 20 µM and an IC50 [3] greater than 10000 nM.
With `C[C@@H](OCC12CCC(CC1)OC2)C(NC(=O)[C@@H]1CN(c2ncnc3ncsc23)CC12CN(C(=O)[C@H]1CC1(C)C)C2)C(=O)N1CCC(C(F)(F)F)CC1` (stereo partly drawn) [Compound I-30, (S)-N-((2S,3R)-3-((2-oxabicyclo[2.2.2]octan-4-yl)methoxy)-1-oxo-1-(4-(trifluoromethyl)piperidin-1-yl)butan-2-yl)-2-((S)-2,2-dimethylcyclopropane-1-carbonyl)-6-(thiazolo[4,5-d]pyrimidin-7-yl)-2,6-diazaspiro[3.4]octane-8-carboxamide] the IC50 [1] was 0.5 to 5 µM and the IC50 [3] was 10 to 100 nM.
In the case of `C[C@@H](OCC1CCCCC1)[C@H](NC(=O)[C@@H]1CN(c2nccc3cn[nH]c23)CC12CN(C(=O)[C@H]1CC1(C)C)C2)C(=O)N1CCCCC1` [Compound I-12, (S)-N-((2S,3R)-3-(cyclohexylmethoxy)-1-oxo-1-(piperidin-1-yl)butan-2-yl)-2-((S)-2,2-dimethylcyclopropane-1-carbonyl)-6-(1H-pyrazolo[3,4-c]pyridin-7-yl)-2,6-diazaspiro[3.4]octane-8-carboxamide 2,2,2-trifluoroacetate], the IC50 [2] is reported as greater than 10 µM and the IC50 [3] is reported as greater than 10000 nM.
